pIC50, pKi: −log10 of the molar value. Counter-ions that a name gives are not always drawn. Like-named read-outs stand apart in the source and are kept apart here.
Columns and labels:
CDK2/Cyclin A = CDK2/Cyclin A (Homo sapiens, UniProt P24941); assay: Inhibition of CDK2/Cyclin A Retinoblastoma Kinase Activity; assay type: biochemical; details: apparent Ki, CDK2/proteolyzed cyclin A, Rb fragment substrate, 25 μM ATP
Method in brief: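 Baculovirus-expressed CDK2 complexed with proteolyzed cyclin A (10 or 19 nM), Rb fragment substrate, 25 μM [32P/33P]ATP, HEPES pH 7.4, 30 °C for 60 or 75 min under initial-rate conditions. Filter capture and phosphorimager readout; apparent Ki fitted to competitive or tight-binding competitive inhibition.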

[1] = molecular target: human CDK4 and genetically truncated (1-264) cyclin D3 (Homo sapiens, UniProt P11802); assay: Inhibition of CDK4/Cyclin D Retinoblastoma Kinase Activity; assay type: biochemical; details: apparent Ki, CDK4/truncated cyclin D3, Rb fragment substrate, 25 μM ATP
Method in brief: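 Human CDK4/truncated cyclin D3 (1-264) complex from baculovirus-infected insect cells, 5 nM, phosphorylating Rb fragment (residues 386-928, His-tagged) with 25 μM [32/33P]ATP in HEPES pH 7.4, MgCl2, 2% DMSO at 30° C. for 20 min (60 min for tight binders). Filter-captured radioactivity by phosphorimager; apparent Ki from competitive or tight-binding fits.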

HCT-116 cell line = assay: Inhibition of cell growth, tetrazolium salt (MTT) assay; assay type: cell-based; details: Homo sapiens, HCT-116, 120 h, MTT, three to five days, read-out: HCT-116 IC50
Method in brief: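 Growth inhibition by MTT reduction at 540 nm (0.2 mg/mL, 4 h at 37° C, formazan dissolved in DMSO), normalized to cells given only 0.5% v/v DMSO. HCT-116 cultures in McCoy's 5A were dosed 4 h post-plating and kept three to five days at 37° C, 5% CO2.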

human CDK4 and genetically truncated (1-264) cyclin D3, sequence (P11802 whole entry, the tested form may be a part): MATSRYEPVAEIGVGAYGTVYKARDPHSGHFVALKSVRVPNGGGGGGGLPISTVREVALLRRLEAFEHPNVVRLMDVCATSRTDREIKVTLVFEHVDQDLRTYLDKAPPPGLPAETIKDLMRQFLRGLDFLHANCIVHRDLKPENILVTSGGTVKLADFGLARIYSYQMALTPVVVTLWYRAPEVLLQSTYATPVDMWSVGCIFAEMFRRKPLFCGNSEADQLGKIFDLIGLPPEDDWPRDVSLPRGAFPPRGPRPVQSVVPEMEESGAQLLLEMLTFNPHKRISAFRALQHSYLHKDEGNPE
human CDK4 and genetically truncated (1-264) cyclin D3, sequence (P30281 1-264 partner): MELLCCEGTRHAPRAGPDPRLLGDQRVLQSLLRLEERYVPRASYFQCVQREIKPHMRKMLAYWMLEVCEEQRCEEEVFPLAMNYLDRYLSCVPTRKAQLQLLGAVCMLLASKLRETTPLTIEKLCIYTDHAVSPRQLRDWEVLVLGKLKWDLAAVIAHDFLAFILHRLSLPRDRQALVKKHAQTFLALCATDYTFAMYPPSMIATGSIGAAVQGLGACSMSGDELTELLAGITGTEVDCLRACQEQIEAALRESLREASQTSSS

Row | SMILES | pKi (CDK2/Cyclin A) | pKi [1] | pIC50 (HCT-116 cell line; first HCT-116 column (c4)) | pIC50 (HCT-116 cell line; second HCT-116 column (c5))
1 | Nc1nc(NC2CCN(S(=O)(=O)c3cnc(OCCN4CCOCC4)nc3)CC2)sc1C(=O)c1c(F)cccc1F [Example H22, (4-Amino-2-{1-[2-(2-morpholin4-yl-ethoxy)-pyrimidine-5-sulfonyl]-piperidin-4-ylamino}-thiazol-5-yl)-(2,6-difluoro-phenyl)-methanone Trifluoroacetic Acid Salt] | 8.92 | 8.96 | 6.92 | 6.52
2 | Nc1nc(NC2CCN(S(=O)(=O)c3cnc(OCCN4CCCCC4)nc3)CC2)sc1C(=O)c1c(F)cccc1F [Example H23, (4-Amino-2-{1-[2-(2-piperidin-1-yl-ethoxy)-pyrimidine-5-sulfonyl]-piperidin-4-ylamino}-thiazol-5-yl)-(2,6-difluoro-phenyl)-methanone Trifluoroacetic Acid Salt] | 8.82 | 9.28 | 7.03 | 5.82
3 | CN(C)CCOc1ncc(S(=O)(=O)N2CCC(Nc3nc(N)c(C(=O)c4c(F)cccc4F)s3)CC2)cn1 [Example H24, (4-Amino-2-{1-[2-(2-dimethylamino-ethoxy)-pyrimidine-5-sulfonyl]-piperidin-4-ylamino}-thiazol-5-yl)-(2,6-difluoro-phenyl)-methanone Trifluoroacetic Acid Salt] | 8.74 | 9.39 | 6.85 | 5.70
4 | CN(C)CCOc1nc(S(=O)(=O)N2CCC(Nc3nc(N)c(C(=O)c4c(F)cccc4F)s3)CC2)cn1C [Example H25, (4-Amino-2-{1-[2-(2-dimethylamino-ethoxy)-1-methyl-1H-imidazole-4-sulfonyl]-piperidin-4-ylamino}-thiazol-5-yl)-(2,6-difluoro-phenyl)-methanone Hydrochloride Salt] | 7.70 | 7.08 | < 5.30 | < 5.30
5 | CN1CCC[C@@H](Oc2ccc(S(=O)(=O)N3CCC(Nc4nc(N)c(C(=O)c5c(F)cccc5F)s4)CC3)cn2)C1 [Example H26, (4-Amino-2-{1-[6-(1-methyl-piperidin-3R-yloxy)-pyridine-3-sulfonyl]-piperidin-4-ylamino}-thiazol-5-yl)-(2,6-difluoro-phenyl)-methanone Hydrochloride] | 9.43 | 8.89 | 7.66 | 7.10
6 | CN1CC[C@@H](Oc2ccc(S(=O)(=O)N3CCC(Nc4nc(N)c(C(=O)c5c(F)cccc5F)s4)CC3)cn2)C1 [Example H27, (4-Amino-2-{1-[6-(1-methyl-pyrrolidin-3R-yloxy)-pyridine-3-sulfonyl]-piperidin-4-ylamino}-thiazol-5-yl)-(2,6-difluoro-phenyl)-methanone Hydrochloride] | 9.46 | 9.01 | 7.10 | 6.54
7 | CN1CC[C@H](Oc2ccc(S(=O)(=O)N3CCC(Nc4nc(N)c(C(=O)c5c(F)cccc5F)s4)CC3)cn2)C1 [Example H28, (4-Amino-2-{1-[6-(1-methyl-pyrrolidin-3S-yloxy)-pyridine-3-sulfonyl]-piperidin-4-ylamino}-thiazol-5-yl)-(2,6-difluoro-phenyl)-methanone Hydrochloride] | 9.39 | 9.00 | 7.31 | 6.80
8 | CN1CCC[C@H](Oc2ccc(S(=O)(=O)N3CCC(Nc4nc(N)c(C(=O)c5c(F)cccc5F)s4)CC3)cn2)C1 [Example H29, (4-Amino-2-{1-[6-(1-methyl-piperidin-3S-yloxy)-pyridine-3-sulfonyl]-piperidin-4-ylamino}-thiazol-5-yl)-(2,6-difluoro-phenyl)-methanone Hydrochloride] | 9.28 | 8.89 | 7.44 | 6.52

Next, values leading:

Row | pKi (CDK2/Cyclin A) | pKi [1] | pIC50 (HCT-116 cell line; first HCT-116 column (c4)) | pIC50 (HCT-116 cell line; second HCT-116 column (c5)) | SMILES
9 | 9.59 | 9.25 | 6.52 | 6.30 | Nc1nc(NC2CCN(S(=O)(=O)c3ccc(-c4ncc[nH]4)nc3)CC2)sc1C(=O)c1c(F)cccc1F [Example I1, 1-(4-Amino-2-{1-[6-(1H-imidazol-2-yl)-pyridine-3-sulfonyl]-piperidin-4-ylamino}-thiazol-5-yl)-1-(2,6-difluoro-phenyl)-methanone Hydrochloride]
10 | 9.39 | 9.14 | 6.62 | 5.85 | Cc1c[nH]c(-c2ccc(S(=O)(=O)N3CCC(Nc4nc(N)c(C(=O)c5c(F)cccc5F)s4)CC3)cn2)n1 [Example I2, 1-(4-Amino-2-{1-[6-(4-methyl-1H-imidazol-2-yl)-pyridine-3-sulfonyl]-piperidin-4-ylamino}-thiazol-5-yl)-1-(2,6-difluoro-phenyl)-methanone Hydrochloride]
11 | 8.77 | 8.70 | 6.80 | 6.30 | Cn1ccnc1-c1ccc(S(=O)(=O)N2CCC(Nc3nc(N)c(C(=O)c4c(F)cccc4F)s3)CC2)cn1 [Example I3, 1-(4-Amino-2-{1-[6-(1-methyl-1H-imidazol-2-yl)-pyridine-3-sulfonyl]-piperidin-4-ylamino}-thiazol-5-yl)-1-(2,6-difluoro-phenyl)-methanone Trifluoroacetic Acid Salt]
12 | > 9.00 | 8.74 | 5.72 | 5.33 | Nc1nc(NC2CCN(S(=O)(=O)c3ccc(Cc4ncc[nH]4)nc3)CC2)sc1C(=O)c1c(F)cccc1F [Example I4, 1-(4-Amino-2-{1-[6-(1H-imidazol-2-ylmethyl)-pyridine-3-sulfonyl]-piperidin-4-ylamino}-thiazol-5-yl)-1-(2,6-difluoro-phenyl)-methanone Hydrochloride]
13 | 8.29 | 9.17 | 7.10 | 6.30 | Cn1cnc(-c2ccc(S(=O)(=O)N3CCC(Nc4nc(N)c(C(=O)c5c(F)cccc5F)s4)CC3)cn2)c1 [Example I5, Hydrochloride]
14 | 9.49 | 9.43 | 7.43 | 6.96 | Nc1nc(NC2CCN(S(=O)(=O)c3ccc(-c4cccnc4)nc3)CC2)sc1C(=O)c1c(F)cccc1F [Example I6, 1-{4-Amino-2-[1-([2,3′]bipyridinyl-5-sulfonyl)-piperidin-4-ylamino]-thiazol-5-yl}-1-(2,6-difluoro-phenyl)-methanone Hydrochloride]
15 | > 9.00 | 9.42 | 5.89 | 5.30 | Nc1nc(NC2CCN(S(=O)(=O)c3ccc(-c4ccncc4)nc3)CC2)sc1C(=O)c1c(F)cccc1F [Example I7, 1-{4-Amino-2-[1-([2,4′]bipyridinyl-5-sulfonyl)-piperidinin-4-ylamino]-thiazol-5-yl}-1-(2,6-difluoro-phenyl)-methanone]
16 | 9.52 | 9.32 | 7.15 | 6.30 | Nc1nc(NC2CCN(S(=O)(=O)c3ccc(-c4cccnc4)cc3)CC2)sc1C(=O)c1c(F)cccc1F [Example I8, 1-{4-Amino-2-[1-(4-pyridin-3-yl-benzenesulfonyl)-piperidin-4-ylamino]-thiazol-5-yl}-1-(2,6-difluoro-phenyl)-methanone Trifluoroacetic Acid Salt]
17 | 8.92 | 9.17 | 6.70 | 5.72 | CN(C)CCCc1ccc(S(=O)(=O)N2CCC(Nc3nc(N)c(C(=O)c4c(F)cccc4F)s3)CC2)cc1 [Example I10, 1-(4-Amino-2-{1-[4-(3-dimethylamino-propyl)-benzenesulfonyl]-piperidin-4-ylamino}-thiazol-5-yl)-1-(2,6-difluoro-phenyl)-methanone D-Glucuronic Acid Salt]
18 | > 9.30 | 9.30 | 7.80 | 7.60 | CN(C)CC#Cc1ccc(S(=O)(=O)N2CCC(Nc3nc(N)c(C(=O)c4c(F)cccc4F)s3)CC2)cn1 [Example I11, 1-(4-Amino-2-{1-[6-(3-dimethylamino-prop-1-ynyl)-pyridine-3-sulfonyl]-piperidin-4-ylamino}-thiazol-5-yl)-1-(2,6-difluoro-phenyl)-methanone]
19 | 8.89 | 8.96 | 6.52 | 5.47 | CN(C)CCCc1ccc(S(=O)(=O)N2CCC(Nc3nc(N)c(C(=O)c4c(F)cccc4F)s3)CC2)cn1 [Example I12, 1-(4-Amino-2-{1-[6-(3-dimethylamino-propyl)-pyridine-3-sulfonyl]-piperidin-4-ylamino}-thiazol-5-yl)-1-(2,6-difluoro-phenyl)-methanone]
20 | 8.89 | 9.35 | 6.55 | 6.22 | Nc1nc(NC2CCN(S(=O)(=O)c3ccc(CCCN4CCCC4)nc3)CC2)sc1C(=O)c1c(F)cccc1F [Example I13, 1-(4-Amino-2-{1-[6-(3-pyrrolidin-1-yl-propyl)-pyridine-3-sulfonyl]-piperidin-4-ylamino}-thiazol-5-yl)-1-(2,6-difluoro-phenyl)-methanone Trifluoroacetic Acid Salt]

— patent US20050101595A1, “N-containing cycloalkyl-substituted amino-thiazole derivatives and pharmaceutical compositions for inhibiting cell proliferation and methods for their use” (PFIZER INC., priority 2003, published 2005)
